According to patent publication US9828623B2 (priority 2014, dated 2017):

test system: cDNA probe; settings: pH 7.5

Compared with TTTTTTTTTTTTTTTTTTTT [T20], AAAAAAAAAAAAAAAAAAAA [A20] is higher in “event mean residence time” value: 0.12 ± 0.01 ms for the first, 11.7 ± 0.2 ms for the second.

Going from 5′-GGATTATTGTGAAATATTGA-3′ [aLF-1] to 5′-GGATTATGGTGAAATATTGA-3′ [aLF-2], the “event mean residence time” value falls from 342 ± 35 ms to 57.4 ± 2.5 ms.
